In ChEMBL document CHEMBL6096728, “Simultaneous Induction of Immunogenic Pyroptosis and PD-L1 Downregulation by One Single Photosensitizer for Synergistic Cancer Photoimmunotherapy” (J Med Chem, 2025):
Active and inactive are the calls of the source. The rule behind the calls is not given here.

What was measured:
MDA-MB-231 [1] = assay: Induction of pyroptosis mediated immunogenic cell death in human MDA-MB-231 cells assessed as increase in CRT exposure on cell membrane at 0.5 uM incubated for 12 hrs under light irradiation of 20 mW.cm/2 at 400 to 700nm for 10 mins; assay type: functional, cell-based
Homo sapiens = species on record: Homo sapiens; assay: Binding affinity to PD-L1 (unknown origin) by streptavidin-biotin pull down assay
4T1 [2] = assay: Induction of pyroptosis in mouse 4T1 cells assessed as appearance of large bubbles in cell at 0.5 uM preincubated with compound for 4 hrs followed by light irradiation of 20 mW.cm/2 at 400 to 700nm for 10 mins by confocal fluorescence microscopy analysis; assay type: functional, cell-based
[3] = Toxicity in BALB/c mouse assessed as effect on WBC at 25 mg/kg, iv measured after 14 days; assay type: organism-based; settings: in vivo, 336 h, time 14 day
MDA-MB-231 [4] = assay: Photocytotoxicity in human MDA-MB-231 cells assessed as cell viablity incubated for 24 hrs under light irradiation of 50 mW.cm/2 at 400 to 700nm measured after 10 mins in hypoxia condition by CCK-8 method; assay type: functional, cell-based; settings: MDA-MB-231, light or radiation study
MDA-MB-468 = assay: Downregulation of PD-L1 expression level in human MDA-MB-468 cells at 0.1 to 0.5 uM incubated for 24 hrs under light irradiation of 20 mW.cm/2 at 400 to 700nm for 10 mins by Western blot analysis; assay type: functional, cell-based; settings: dose 0.1-0.5 µM
[5] = Induction of ROS generation under LED light irradiation assessed as increase in superoxide anion radical level by measuring increase in DHR123 fluorescence at 5 uM measured for 7 mins by fluorescence based analysis; assay type: functional
[6] = Aqueous solubility of the compound by UV-vis absorption analysis; assay type: physicochemical; settings: water
[7] = Drug uptake in mouse 4T1 cells assessed as increase in fluorescence intensity at 2.5 uM measured after 180 mins by flow cytometry analysis; assay type: ADME, cell-based; settings: 4t1, 3 h
MDA-MB-231 [8] = assay: Induction of pyroptosis in human MDA-MB-231 cells assessed as effect on caspase-1 expression level at 0.1 to 0.5 uM preincubated with compound for 12 hrs followed by light irradiation of 20 mW.cm/2 at 400 to 700nm for 10 mins by Western blot analysis; assay type: functional, cell-based; settings: dose 0.1-0.5 µM
MDA-MB-231 [9] = assay: Induction of pyroptosis mediated immunogenic cell death in human MDA-MB-231 cells assessed as increase in HMGB1 release at 0.5 uM incubated for 12 hrs under light irradiation of 20 mW.cm/2 at 400 to 700nm for 10 mins; assay type: functional, cell-based
MDA-MB-231 [10] = assay: Cytotoxicity against human MDA-MB-231 cells at 0.01 to 10 uM incubated for 2 hrs under dark condition by CCK-8 method; assay type: functional, cell-based; settings: dose 0.01-10 µM
[11] = Toxicity in BALB/c mouse assessed as effect on liver at 25 mg/kg, iv measured after 14 days by H and E staining based analysis; assay type: organism-based; settings: in vivo, 336 h, time 14 day
[12] = Toxicity in BALB/c mouse assessed as effect on hemoglobin at 25 mg/kg, iv measured after 14 days under light irradiation of 300 mW.cm/2 at 400 to 700nm measured after 5 mins; assay type: organism-based; settings: in vivo, 336 h, 0.7 µM, time 14 day
4T1 [13] = assay: Antitumor immunity against mouse 4T1 cells implanted in BALB/c mouse model assessed as increase in IFN-gamma secretion in tumors at 25 mg/kg, iv measured after 14 days under light irradiation of 300 mW.cm/2 at 400 to 700nm measured after 5 mins by ELISA method; assay type: functional, organism-based; settings: time 14.0 day
[14] = Toxicity in BALB/c mouse assessed as effect on platelets at 25 mg/kg, iv measured after 14 days; assay type: organism-based; settings: in vivo, 336 h, time 14 day
[15] = Toxicity in BALB/c mouse assessed as effect on lung at 25 mg/kg, iv measured after 14 days by H and E staining based analysis; assay type: organism-based; settings: in vivo, 336 h, time 14 day
4T1 [16] = assay: Antitumor activity against mouse 4T1 cells implanted in BALB/c mouse model assessed as reduction in tumor growth at 25 mg/kg, iv measured after 14 days under light irradiation of 300 mW.cm/2 at 400 to 700nm measured after 5 mins; assay type: functional, organism-based; settings: time 14.0 day
[17] = Toxicity in BALB/c mouse assessed as effect on platelets at 25 mg/kg, iv measured after 14 days under light irradiation of 300 mW.cm/2 at 400 to 700nm measured after 5 mins; assay type: organism-based; settings: in vivo, 336 h, 0.7 µM, time 14 day
MDA-MB-231 [18] = assay: Induction of pyroptosis in human MDA-MB-231 cells assessed as upregulation of GSDME-N expression level at 0.1 to 0.5 uM incubated with compound for 12 hrs under dark condition by Western blot analysis; assay type: functional, cell-based; settings: dose 0.1-0.5 µM
MDA-MB-231 [19] = assay: Induction of pyroptosis in human MDA-MB-231 cells assessed as upregulation of caspase-3 expression level at 0.1 to 0.5 uM preincubated with compound for 12 hrs followed by light irradiation of 20 mW.cm/2 at 400 to 700nm for 10 mins by Western blot analysis; assay type: functional, cell-based; settings: dose 0.1-0.5 µM
MDA-MB-231 [20] = assay: Induction of pyroptosis in human MDA-MB-231 cells assessed as upregulation of GSDME-N expression level at 0.1 to 0.5 uM preincubated with compound for 12 hrs followed by light irradiation of 20 mW.cm/2 at 400 to 700nm for 10 mins by Western blot analysis; assay type: functional, cell-based; settings: dose 0.1-0.5 µM
[21] = Toxicity in BALB/c mouse assessed as effect on tumor at 25 mg/kg, iv measured after 14 days under light irradiation of 300 mW.cm/2 at 400 to 700nm measured after 5 mins by H and E staining based analysis; assay type: organism-based; settings: in vivo, 336 h, 0.7 µM, time 14 day
4T1 [22] = assay: Antitumor immunity against mouse 4T1 cells implanted in BALB/c mouse model assessed as increase of CD4+ T cells in lymph node at 25 mg/kg, iv measured after 14 days under light irradiation of 300 mW.cm/2 at 400 to 700nm measured after 5 mins […]; assay type: functional, organism-based; settings: time 14.0 day
MDA-MB-231 [23] = assay: Induction of pyroptosis in human MDA-MB-231 cells assessed as formation of bubble-like protrusion on cell surface at 0.25 uM preincubated with compound for 12 hrs followed by light irradiation of 20 mW.cm/2 at 400 to 700nm for 10 mins by confocal fluorescence microscopy analysis; assay type: functional, cell-based
4T1 [24] = assay: Antitumor immunity against mouse 4T1 cells implanted in BALB/c mouse model assessed as upregulation of proportion of macrophage in lymph node at 25 mg/kg, iv measured after 14 days under light irradiation of 300 mW.cm/2 at 400 to 700nm measured after 5 mins by flow cytometry analysis; assay type: functional, organism-based; settings: time 14.0 day
4T1 [25] = assay: Induction of pyroptosis in mouse 4T1 cells assessed as cell swelling at 0.5 uM preincubated with compound for 4 hrs followed by light irradiation of 20 mW.cm/2 at 400 to 700nm for 10 mins by confocal fluorescence microscopy analysis; assay type: functional, cell-based
[26] = Toxicity in BALB/c mouse assessed as effect on liver at 25 mg/kg, iv measured after 14 days under light irradiation of 300 mW.cm/2 at 400 to 700nm measured after 5 mins; assay type: organism-based; settings: in vivo, 336 h, 0.7 µM, time 14 day
4T1 [27] = assay: Induction of cell death in mouse 4T1 cells assessed as increase in red fluorescence at 0.5 uM incubated for 24 hrs followed by light irradiation of 20 mW.cm/2 at 400 to 700nm for 10 mins by Calcein-AM/PI staining based analysis; assay type: functional

## O=c1cc2sc3cc(N4CCNCC4)ccc3nc-2c2ccccc12
MDA-MB-231 [1]
  Activity: Active
Homo sapiens
  Activity: Not active; Compound Rarely Binds To Pd-L1
4T1 [2]
  Activity: Active
[3]
  Activity: Non-toxic
MDA-MB-231 [4]
  IC50: 983 nM
MDA-MB-468
  Activity: Active
[5]
  Activity: Active
[6]
  solubility: > 10 mM
[7]
  Drug uptake: Active
MDA-MB-231 [8]
  Activity: inactive
MDA-MB-231 [9]
  Activity: Active
MDA-MB-231 [10]
  Activity: Active; Compound Showed Low Toxicity
[11]
  Activity: Non-toxic
[12]
  Activity: Non-toxic
4T1 [13]
  Activity: Active
[14]
  Activity: Non-toxic
[15]
  Activity: Non-toxic
4T1 [16]
  Activity: Active
[17]
  Activity: Non-toxic
MDA-MB-231 [18]
  Activity: Active; Compound Showed Negligible Changes
MDA-MB-231 [19]
  Activity: Active
MDA-MB-231 [20]
  Activity: Active
[21]
  Activity: Toxic
4T1 [22]
  Activity: Active
MDA-MB-231 [23]
  Activity: Active
4T1 [24]
  Activity: Active
4T1 [25]
  Activity: Active
[26]
  Activity: Non-toxic
4T1 [27]
  Activity: Active
